Data published in patent US6767991B1, “Hepatitis C inhibitor peptides” (priority 1997, dated 2004).
*1 amine or outer side, *2 acyl side, *3 side chain or, on linkers, in order; H or OH if unused. Where a SMILES comes first, the peptide text is derived from it. Where no end group is shown, it is not given here. [ ]: non-standard residue; d: D form. The star is where a group is joined. CH2(1-naphthyl) = c1ccc2c(C*)cccc2c1; Hyp = O=C(O)[C@@H]1C[C@@H](O)CN1; NMeI = CC[C@H](C)[C@H](NC)C(=O)O; AllylGly = C=CC[C@H](N)C(=O)O; Chg = N[C@H](C(=O)O)C1CCCCC1; Suc = O=C(CCC(=O)[*:2])[*:1]; X5 = CC(C)(C)c1ccc(C*)cc1; Nva = CCC[C@H](N)C(=O)O; X1 = c1ccc2cc(C*)ccc2c1; Abu = CC[C@H](N)C(=O)O; Ac3c = NC1(C(=O)O)CC1; X6 = Ic1cccc(C*)c1; Bn = c1ccc(C*)cc1

These molecules were tested against T1, HCV NS3 protease type 1b/NS4A cofactor peptide (Hepatitis C virus genotype 1b, UniProt P26663) (assay: Recombinant HCV NS3 protease/NS4A cofactor peptide radiometric assay). Settings: Table 1, unmarked values: NS3 protease/NS4A cofactor peptide radiometric assay; read-out: IC50.
T1 construct: recombinant HCV NS3 protease (amino acid 1027 to 1206) was cloned in the pET11d bacterial expression vector; made in house; host or cells: E. coli BL21(DE3)pLysS
Type: biochemical, HCV genotype 1b
Protocol: Recombinant HCV NS3 Protease/NS4A Cofactor Peptide Radiometric Assay.
The enzyme was stored at −80° C., thawed on ice and diluted just prior to use in the assay buffer containing the NS4A cofactor peptide.
The substrate used for the NS3 protease/NS4A cofactor peptide radiometric assay, DDIVPC-SMSYTW [SEQ. ID NO. 2], is cleaved between the cysteine and the serine residues by the enzyme. The sequence DDIVPC-SMSYTW [SEQ. ID NO. 2] corresponds to the NS5A/NS5B natural cleavage site in which the cysteine residue in P2 has been substituted for a proline. The peptide substrate DDIVPC-SMSYTW [SEQ. ID NO. […] ID NO. […] [SEQ. ID NO. 5] (molar ratio enzyme: cofactor 1:100) in the absence or presence of inhibitors. The separation of substrate from products is performed by adding avidin-coated agarose beads to the assay mixture followed by filtration. […] ID NO. 4] product found in the filtrate allows for the calculation of the percentage of substrate conversion and of the percentage of inhibition.
Tris and Tris-HCl (UltraPure) were obtained from Gibco-BRL. Glycerol (UltraPure), MES and BSA were purchased from Sigma. TCEP was obtained from Pierce, DMSO from Aldrich and NaOH from Anachemia.
Assay buffer: 50 mM Tris HCl, pH 7.5, 30% (w/v) glycerol, 1 mg/mL BSA, 1 mM TCEP (TCEP added just prior to use from a 1 M stock solution in water).
Substrate: […] [SEQ. ID NO.
ID NO. 3] (˜1 nM final concentration).
The assay was performed in a 96-well polypropylene plate from Costar. Each well contained:
20 μL substrate/tracer in assay buffer;
10 μL±inhibitor in 20% DMSO/assay buffer;
10 μL NS3 protease 1b/NS4 cofactor peptide (molar ratio 1:100).
Blank (no inhibitor and no enzyme) and control (no inhibitor) were also prepared on the same assay plate.
The enzymatic reaction was initiated by the addition of the enzyme/NS4A peptide solution and the assay mixture was incubated for 40 min at 23° C. under gentle agitation. Ten (10) μL of 0.5N NaOH were added and 10 μL 1 M MES, pH 5.8 were added to quench the enzymatic reaction.
Twenty (20) μL of avidin-coated agarose beads (purchased from Pierce) were added in a Millipore MADP N65 filtration plate. The quenched assay mixture was transferred to the filtration plate, and incubated for 60 min at 23° C. under gentle agitation.
The plates were filtered using a Millipore MultiScreen Vacuum Manifold Filtration apparatus, and 40 μL of the filtrate was transferred in an opaque 96-well plate containing 60 μL of scintillation fluid per well.
The % inhibition was calculated with the following equation:
100-[(countsinh-countsblank)/(countsctl-countsblank)×100]

T1 sequence (P26663 1027-1206, other chains not shown): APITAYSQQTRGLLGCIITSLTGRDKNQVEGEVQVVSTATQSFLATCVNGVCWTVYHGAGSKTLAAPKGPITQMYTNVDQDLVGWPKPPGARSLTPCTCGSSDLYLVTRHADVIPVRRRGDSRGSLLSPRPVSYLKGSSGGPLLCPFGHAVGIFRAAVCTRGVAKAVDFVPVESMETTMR

Q: With `CC[C@H](C)[C@H](NC(=O)[C@H](CC(=O)O)NC(=O)[C@H](CC(=O)O)NC(C)=O)C(=O)N[C@H](C(=O)N1C[C@H](OCc2ccccc2)C[C@H]1C(=O)N[C@@H](CS)C(=O)O)C(C)C` [compound 121] (Ac-DDIV[Hyp](Bn)C-OH) as the molecule, how does the IC50 read?
A: 1.7 µM

Q: Which IC50 does the source give for `CC[C@H](C)[C@H](NC(=O)[C@H](CC(=O)O)NC(=O)CCC(=O)O)C(=O)N[C@H](C(=O)N1CCC[C@H]1C(=O)N[C@@H](CS)C(=O)O)C(C)C` [compound 103] (Suc-DIVPC-OH) here?
A: 26 µM

Q: How did the IC50 turn out when Ac-EDIVPC [compound 102] was run?
A: 59 µM

Q: With Ac-DDIVPC [compound 101] as the molecule, how does the IC50 read?
A: 46 µM

Q: `CC[C@H](C)[C@H](NC(=O)[C@@H](CCC(=O)O)NC(=O)[C@H](CC(=O)O)NC(C)=O)C(=O)N[C@H](C(=O)N1CCC[C@H]1C(=O)N[C@@H](CS)C(=O)O)C(C)C` [compound 105] (Ac-D[dE]IVPC-OH) was tested. Which IC50 did it give?
A: 1.5 µM

Q: Which IC50 does the source give for `CC[C@H](NC(=O)[C@@H]1CCCN1C(=O)[C@@H](NC(=O)[C@@H](NC(=O)[C@H](CC(=O)O)NC(=O)[C@H](CC(=O)O)NC(C)=O)[C@@H](C)CC)C(C)C)C(=O)O` [compound 122] (Ac-DDIVP[Abu]-OH) here?
A: 315 µM

Q: How did the IC50 turn out when `CC[C@H](C)[C@H](NC(=O)[C@@H](CC(=O)O)NC(=O)[C@H](CC(=O)O)NC(C)=O)C(=O)N[C@H](C(=O)N1CCC[C@H]1C(=O)N[C@@H](CS)C(=O)O)C(C)C` [compound 104] (Ac-D[dD]IVPC-OH) was run?
A: 8.5 µM

Q: With `CC(=O)N[C@@H](CC(=O)O)C(=O)N[C@H](CCC(=O)O)C(=O)N[C@H](C(=O)N[C@@H](CCC(=O)O)C(=O)N[C@@H](CCC(=O)O)C(=O)NC1(C(=O)O)CC1)C1CCCCC1` [compound 132] (Ac-D[dE][Chg]EE[Ac3c]-OH) as the molecule, how does the IC50 read?
A: 36 µM

Q: How did the IC50 turn out when `C=CC[C@H](NC(=O)[C@@H]1CCCN1C(=O)[C@@H](NC(=O)[C@@H](NC(=O)[C@H](CC(=O)O)NC(=O)[C@H](CC(=O)O)NC(C)=O)[C@@H](C)CC)C(C)C)C(=O)O` [compound 124] (Ac-DDIVP[AllylGly]-OH) was run?
A: 210 µM

Q: How did the IC50 turn out when Ac-DDIVIC [compound 119] was run?
A: 90 µM

Q: With `CC[C@H](C)[C@H](NC(=O)[C@H](CC(=O)O)NC(=O)[C@H](CC(=O)O)NC(C)=O)C(=O)N[C@H](C(=O)N1CCC[C@H]1C(=O)NC1(C(=O)O)CC1)C(C)C` [compound 126] (Ac-DDIVP[Ac3c]-OH) as the molecule, how does the IC50 read?
A: 45 µM

Same assay, conditions: Table 2, unmarked values: NS3 protease/NS4A cofactor peptide radiometric assay; read-out: IC50

Q: For `CCC[C@H](NC(=O)[C@@H]1C[C@@H](OCc2ccc(C(C)(C)C)cc2)CN1C(=O)[C@@H](NC(=O)[C@@H](NC(=O)[C@H](CC(=O)O)NC(=O)[C@H](CC(=O)O)NC(C)=O)[C@@H](C)CC)C(C)C)C(=O)O` [compound 209] (Ac-DDIV[Hyp](X5)[Nva]-OH), which IC50 is on record?
A: 2.6 µM

Q: How did the IC50 turn out when `CCC[C@H](NC(=O)[C@@H]1C[C@@H](OCc2cccc3ccccc23)CN1C(=O)[C@@H](NC(=O)[C@H]([C@@H](C)CC)N(C)C(=O)CCC(=O)O)C(C)C)C(=O)O` [compound 220] (Suc-[NMeI]V[Hyp](CH2(1-naphthyl))[Nva]-OH) was run?
A: 31 µM

Q: For `CCC[C@H](NC(=O)[C@@H]1CCCN1C(=O)[C@@H](NC(=O)[C@@H](NC(=O)[C@H](CC(=O)O)NC(=O)[C@H](CC(=O)O)NC(C)=O)[C@@H](C)CC)C(C)C)C(=O)O` (single isomer, unassigned) [compound 273], which IC50 is on record?
A: 17.5 µM

Q: With `CCC[C@H](NC(=O)[C@@H]1C[C@@H](OCc2ccc3ccccc3c2)CN1C(=O)[C@@H](NC(=O)[C@@H](NC(=O)[C@@H](CCC(=O)O)NC(=O)[C@H](CC(=O)O)NC(C)=O)[C@@H](C)CC)C(C)C)C(=O)O` [compound 213] (Ac-D[dE]IV[Hyp](X1)[Nva]-OH) as the molecule, how does the IC50 read?
A: 0.036 µM

Q: `CCC[C@H](NC(=O)[C@@H]1C[C@@H](OCc2cccc3ccccc23)CN1C(=O)[C@@H](NC(=O)[C@@H](NC(C)=O)C1CCCCC1)C(C)C)C(=O)O` [compound 252] (Ac-[Chg]V[Hyp](CH2(1-naphthyl))[Nva]-OH) was tested. Which IC50 did it give?
A: 20 µM

Q: For `CCC[C@H](NC(=O)[C@@H]1C[C@@H](OCc2cccc3ccccc23)CN1C(=O)[C@@H](NC(=S)[C@@H](NC(=O)CNC(C)=O)[C@@H](C)CC)C(C)C)C(=O)O` [compound 236], which IC50 is on record?
A: 4 µM

Q: Which IC50 does the source give for `CCC[C@H](NC(=O)[C@@H]1C[C@@H](OCc2ccccc2)CN1C(=O)[C@@H](NC(=O)[C@@H](NC(=O)[C@H](CC(=O)O)NC(=O)[C@H](CC(=O)O)NC(C)=O)[C@@H](C)CC)C(C)C)C(=O)O` [compound 201] (Ac-DDIV[Hyp](Bn)[Nva]-OH) here?
A: 7.2 µM

Q: With `CC(=O)N[C@H](C(=O)N[C@H](C(=O)N1C[C@H](Oc2cccc(Br)c2)C[C@H]1C(=O)NC1(C(=O)O)CC1)C(C)C)C1CCCCC1` [compound 240] as the molecule, how does the IC50 read?
A: 42 µM

Q: For `CC[C@H](C)[C@H](NC(=O)[C@H](CCC(=O)O)NC(=O)[C@H](CC(=O)O)NC(C)=O)C(=O)N[C@H](C(=O)N1C[C@H](OCc2cccc(I)c2)C[C@H]1C(=O)NC1(C(=O)O)CC1)C(C)C` [compound 233] (Ac-DEIV[Hyp](X6)[Ac3c]-OH), which IC50 is on record?
A: 0.14 µM

Q: With `CC[C@H](C)[C@H](NC(=O)[C@@H](CCC(=O)O)NC(=O)[C@H](CC(=O)O)NC(C)=O)C(=O)N[C@H](C(=O)N1C[C@H](OCc2ccccc2)C[C@H]1C(=O)N[C@@H](CS)C(=O)O)C(C)C` [compound 260] (Ac-D[dE]IV[Hyp](Bn)C-OH) as the molecule, how does the IC50 read?
A: 0.18 µM
